The test concerns the target recombinant human BACE-1 protein (Homo sapiens (Human), UniProt P56817). The test is described as follows: Measurement of Inhibition of β-Secretase Activity. Format: biochemical. The conditions noted are these: 3 h at 30° C., pH5.0, read-out: IC50 value. Here is the method: Zero point five μL of the test compounds (dissolved in N,N′-dimethylsulfoxide) were incubated with 48.5 μL of the fluorescence-quenched peptide substrate solution (Biotin-XSEVNLDAEFRHDSGC-Eu:X=ε-amino-n-capronic acid, Eu=Europium cryptate) and 1 μL of recombinant human BACE-1 protein (R&D systems) for 3 h at 30° C. in the 96 well half-area plate (black color plate, Costar). The substrate peptide was synthesized by reacting with Biotin-XSEVNLDAEFRHDSGC (Peptide Institute) and Cryptate TBPCOOH mono SMP (CIS bio international). […] The enzymatic reaction was performed in sodium acetate buffer (50 mM sodium acetate (pH5.0), 0.008% Triton X-100). After the reaction, a 50 μL of 8.0 μg/mL Streptavidin-XL665 (CIS bio international) dissolved in phosphate buffer (150 mM K2HPO4—KH2PO4 (pH 7.0), 0.008% Triton X-100, 0.8 M KF) was add to each well and incubated for 1 h at 30° C.

Where [1] appears, read: fluorescence-quenched peptide substrate 18 nM, BACE-1 7.4 nM.
Setting [2] is: recombinant human BACE-1 protein.

Read-outs that look alike come from different tables or passages of the source.

Broadly, the IC50 is the concentration that gives 50% inhibition.

Chain of recombinant human BACE-1 protein (P56817 46-501): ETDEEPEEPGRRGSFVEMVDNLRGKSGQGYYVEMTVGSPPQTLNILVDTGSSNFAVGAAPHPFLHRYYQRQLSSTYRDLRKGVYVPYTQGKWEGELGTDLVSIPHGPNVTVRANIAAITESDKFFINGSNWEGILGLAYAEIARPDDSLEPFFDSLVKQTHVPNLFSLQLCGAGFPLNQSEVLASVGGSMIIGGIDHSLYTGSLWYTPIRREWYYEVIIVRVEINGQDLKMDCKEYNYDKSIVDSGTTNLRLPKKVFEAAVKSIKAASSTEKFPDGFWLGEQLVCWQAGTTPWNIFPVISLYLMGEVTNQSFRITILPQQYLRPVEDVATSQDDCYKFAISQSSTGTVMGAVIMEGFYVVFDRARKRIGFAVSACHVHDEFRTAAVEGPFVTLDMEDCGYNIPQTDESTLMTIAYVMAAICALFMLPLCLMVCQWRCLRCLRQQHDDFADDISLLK

With `CC1(c2cccc(NC(=O)c3ccccn3)c2)CCSC(N)=N1` (stereo not shown) [Compound 352], the half-maximal inhibitory concentration (IC50) under setting [1] is less than 100 µM.

On to `CNc1nc(OC)cnc1C(=O)Nc1cccc(C2(C)CCSC(N)=N2)c1` (stereo not shown) [Compound 353], for which the IC50 under setting [1] was less than 100 µM.

`CC1(c2cccc(NCc3ccccc3)c2)CCSC(N)=N1` (stereo not shown) [Compound 357]: the 50% inhibitory concentration (IC50) under setting [1] is less than 100 µM.

Turning to `Cn1nc(C(=O)Nc2cccc(C3(C)CCSC(N)=N3)c2)cc1CO` (stereo not shown) [Compound 358], the IC50 under setting [1] is less than 100 µM.

For the molecule `CC(=O)NCc1cccc(C2(C)CCSC(N)=N2)c1` (stereo not shown) [Compound 360], the half-maximal inhibitory concentration (IC50) under setting [1] was less than 100 µM.

Turning to `CC1(c2cccc(NC(=O)C(=O)Nc3ccc(Cl)cc3)c2)CCSC(N)=N1` (stereo not shown) [Compound 361], the IC50 under setting [1] was less than 100 µM.

With `CC1(c2ccc(C(=O)NCc3cccc(Cl)c3)cc2)CCSC(N)=N1` (stereo not shown) [Compound 363], under setting [1], the concentration for half-maximal inhibition (IC50) is less than 100 µM.

Regarding `CC1(c2cccc(NC(=O)c3ccc(Cl)c(Cl)c3)c2)CCSC(N)=N1` (stereo not shown) [Compound 369], the 50% inhibitory concentration (IC50) under setting [1] was less than 100 µM.

On to `CC1(c2cc(Br)cc(NC(=O)c3ccco3)c2)CCSC(N)=N1` (stereo not shown) [Compound 370], for which the IC50 under setting [1] was less than 100 µM.

For `Cc1ccc(F)c(C(=O)Nc2cccc(C3(C)CCSC(N)=N3)c2)c1` (stereo not shown) [Compound 373], the IC50 under setting [1] was less than 100 µM.

`CC1(c2cccc(NC(=O)c3ccc(Cl)cc3F)c2)CCSC(N)=N1` (stereo not shown) [Compound 378]: the IC50 under setting [1] was less than 100 µM.

For `CC1(c2cccc(/C=N/Oc3ccccc3)c2)CCSC(N)=N1` (stereo not shown) [Compound 383], the IC50 under setting [1] is less than 100 µM.

As to `CC1(c2cccc(NCc3cccnc3)c2)CCSC(N)=N1` (stereo not shown) [Compound 389], under setting [1], the IC50 is less than 100 µM.

On to `CC1(c2cccc(OCC(=O)Nc3ccc4ccccc4n3)c2)CCSC(N)=N1` (stereo not shown) [Compound 390], for which, under setting [1], the IC50 is less than 100 µM.

Consider `CC1(c2cccc(NC(=O)c3ccc(NCc4ccncc4)cn3)c2)CCSC(N)=N1` (stereo not shown) [Compound 393], for which the IC50 under setting [1] is less than 100 µM.

In the case of `COCc1cc(NC(=O)c2ccc(Cl)cc2)cc(C2(C)CCSC(N)=N2)c1` (stereo not shown) [Compound 395], the half-inhibitory concentration (IC50) under setting [2] amounted to 1.5 µM.

With `Cc1oc(-c2ccc(Cl)cc2)cc1C(=O)Nc1cc(C2(C)CCSC(N)=N2)ccc1F` (stereo not shown) [Compound 397], under setting [1], the concentration for half-maximal inhibition (IC50) was less than 100 µM.

On to `CC1(c2cccc(OCC(=O)Nc3ccc(O)cc3)c2)CCSC(N)=N1` (stereo not shown) [Compound 402], for which the IC50 under setting [1] is less than 100 µM.

Consider `CC1(c2cccc(NC(=S)Nc3ccc(Cl)cc3)c2)CCSC(N)=N1` (stereo not shown) [Compound 406], for which the IC50 under setting [1] is less than 100 µM.

`CC1(c2cccc(NCCc3ccccc3)c2)CCSC(N)=N1` (stereo not shown) [Compound 409]: the half-inhibitory concentration (IC50) under setting [1] is less than 100 µM.

Turning to `CC1(c2cccc(/C=C/C(=O)Nc3ccc(F)cc3)c2)CCSC(N)=N1` (stereo not shown) [Compound 415], the IC50 under setting [1] was less than 100 µM.

Regarding `CC1(c2cccc(NC(=O)c3ccc(NCc4cccnc4)cn3)c2)CCSC(N)=N1` (stereo not shown) [Compound 426], the IC50 under setting [1] is less than 100 µM.

Turning to `CC1(c2ccc(C(=O)NCCc3ccc(Cl)cc3)s2)CCSC(N)=N1` (stereo not shown) [Compound 442], under setting [1], the 50% inhibitory concentration (IC50) is less than 100 µM.

As for `CC1(c2cccc(NCc3ccc4ccccc4c3)c2)CCSC(N)=N1` (stereo not shown) [Compound 443], the IC50 under setting [1] is less than 100 µM.

With `CC1(c2cccc(C(=O)NCCc3ccc(Cl)cc3)c2)CCSC(N)=N1` (stereo not shown) [Compound 451], under setting [1], the IC50 was less than 100 µM.

For the molecule `CC1(c2cccc(OCC(=O)Nc3ccc4cnccc4c3)c2)CCSC(N)=N1` (stereo not shown) [Compound 454], the IC50 under setting [1] was less than 100 µM.

With `CC1(c2cc(Br)cc(NC(=O)c3ccc(Cl)cc3)c2)CCSC(N)=N1` (stereo not shown) [Compound 463], under setting [1], the IC50 was less than 100 µM.

With `COc1ccc(C(=O)Nc2cccc(C3(C)CCSC(N)=N3)c2)c(OC)n1` (stereo not shown) [Compound 467], the IC50 under setting [1] was less than 100 µM.

In the case of `CC1(c2cccc(NC(=O)c3ccc(F)c(O)c3)c2)CCSC(N)=N1` (stereo not shown) [Compound 469], under setting [1], the IC50 is less than 100 µM.

Consider `CC1(c2cccc(NC(=O)c3ncc(Cl)cc3N)c2)CCSC(N)=N1` (stereo not shown) [Compound 472], for which the IC50 under setting [1] was less than 100 µM.

`CC1(c2cccc(NC(=O)c3ccc(C(F)(F)F)cc3)c2)CCSC(N)=N1` (stereo not shown) [Compound 479]: the half-inhibitory concentration (IC50) under setting [1] was less than 100 µM.

Take `CCOc1ccc(C(=O)Nc2cccc(C3(C)CCSC(N)=N3)c2)cc1` (stereo not shown) [Compound 480]: under setting [1], the IC50 is less than 100 µM.

Consider `CC1(c2cccc(NC(=O)c3ncc(C(F)(F)F)cc3Cl)c2)CCSC(N)=N1` (stereo not shown) [Compound 482], for which the half-inhibitory concentration (IC50) under setting [1] was less than 100 µM.

Turning to `CC1(c2cc(Br)cc(NC(=O)c3cccs3)c2)CCSC(N)=N1` (stereo not shown) [Compound 490], the 50% inhibitory concentration (IC50) under setting [2] was found to be 5.1 µM.

`Cc1noc(C)c1C(=O)Nc1cccc(C2(C)CCSC(N)=N2)c1` (stereo not shown) [Compound 491]: the IC50 under setting [1] is less than 100 µM.

As for `CC1(c2ccc(F)c(NS(=O)(=O)c3ccc(Cl)cc3)c2)CCSC(N)=N1` (stereo not shown) [Compound 493], the concentration for half-maximal inhibition (IC50) under setting [1] was less than 100 µM.

Regarding `Cn1cccc1C(=O)Nc1ccc(F)c(C2(C)CCSC(N)=N2)c1` (stereo not shown) [Compound 497], the IC50 under setting [1] is less than 100 µM.

In the case of `CC1(c2cccc(OCC(=O)Nc3ccc4c(c3)OCCO4)c2)CCSC(N)=N1` (stereo not shown) [Compound 509], under setting [1], the half-maximal inhibitory concentration (IC50) was less than 100 µM.

For `CCOc1ccc(C(=O)Nc2cccc(C3(C)CCSC(N)=N3)c2)nc1` (stereo not shown) [Compound 516], the IC50 under setting [1] is less than 100 µM.

With `CC1(c2cccc(NC(=O)c3ccc(C#N)cc3F)c2)CCSC(N)=N1` (stereo not shown) [Compound 517], the IC50 under setting [1] is less than 100 µM.

As for `CC1(c2ccc(F)c(NC(=O)c3ccc(Cl)nc3)c2)CCSC(N)=N1` (stereo not shown) [Compound 527], the IC50 under setting [1] is less than 100 µM.

As for `CCOc1cc(Cl)cnc1C(=O)Nc1cccc(C2(C)CCSC(N)=N2)c1` (stereo not shown) [Compound 532], under setting [1], the IC50 was less than 100 µM.

As to `CC1(c2cccc(C(=O)Nc3ccc(Cl)cn3)c2)CCSC(N)=N1` (stereo not shown) [Compound 542], the IC50 under setting [1] is less than 100 µM.

Regarding `CC1(c2cc(NC(=O)c3ccc(Cl)cc3Cl)ccc2F)CCSC(N)=N1` (stereo not shown) [Compound 544], the half-inhibitory concentration (IC50) under setting [1] is less than 100 µM.

Turning to `Cc1ccc(C(=O)Nc2cccc(C3(C)CCSC(N)=N3)c2)cc1` (stereo not shown) [Compound 550], the 50% inhibitory concentration (IC50) under setting [1] is less than 100 µM.

On to `CC1(c2ccc(F)c(C(=O)NCc3ccccc3)c2)CCSC(N)=N1` (stereo not shown) [Compound 558], for which the concentration for half-maximal inhibition (IC50) under setting [1] was less than 100 µM.

As to `CC1(c2cc(NC(=O)c3ccc4cc[nH]c4c3)ccc2F)CCSC(N)=N1` (stereo not shown) [Compound 560], under setting [1], the half-inhibitory concentration (IC50) was less than 100 µM.

For `CC1(c2cccc(NC(=O)c3cccc(Cl)c3)c2)CCSC(N)=N1` (stereo not shown) [Compound 568], under setting [1], the IC50 was less than 100 µM.

For the molecule `Cc1ccc(C(=O)Nc2cccc(C3(C)CCSC(N)=N3)c2)c(O)c1` (stereo not shown) [Compound 569], the IC50 under setting [1] was less than 100 µM.

`CC1(c2cccc(NC(=O)c3c(O)cccc3F)c2)CCSC(N)=N1` (stereo not shown) [Compound 575]: the IC50 under setting [1] is less than 100 µM.

With `Cc1cc(C(=O)Nc2cccc(C3(C)CCSC(N)=N3)c2)c(C)o1` (stereo not shown) [Compound 578], the concentration for half-maximal inhibition (IC50) under setting [1] was less than 100 µM.

`Cn1c(C(=O)Nc2ccc(F)c(C3(C)CCSC(N)=N3)c2)cc2ccccc21` (stereo not shown) [Compound 586]: under setting [1], the half-maximal inhibitory concentration (IC50) is less than 100 µM.

On to `CC1(c2cccc(OCC(=O)Nc3ccc(C(=O)c4ccccc4)cc3)c2)CCSC(N)=N1` (stereo not shown) [Compound 591], for which the half-inhibitory concentration (IC50) under setting [1] was less than 100 µM.

As to `Cc1cc(C(=O)Nc2cc(C3(C)CCSC(N)=N3)ccc2F)c(C)o1` (stereo not shown) [Compound 607], the half-maximal inhibitory concentration (IC50) under setting [1] is less than 100 µM.

Consider `CC1(c2cccc(NC(=O)c3ccc(NCc4ccccc4)cn3)c2)CCSC(N)=N1` (stereo not shown) [Compound 608], for which, under setting [1], the 50% inhibitory concentration (IC50) is less than 100 µM.

Take `CC1(c2cccc(NC(=O)CCNC(=O)c3ccc(Cl)cc3)c2)CCSC(N)=N1` (stereo not shown) [Compound 613]: the IC50 under setting [1] was less than 100 µM.

Consider `CC1(c2cccc(C=Cc3ccc(Cl)cn3)c2)CCSC(N)=N1` (stereo not shown) [Compound 616], for which the half-maximal inhibitory concentration (IC50) under setting [2] is 5.9 µM.

Turning to `Cc1ccc(C(=O)Nc2cccc(C3(C)CCSC(N)=N3)c2)nn1` (stereo not shown) [Compound 618], under setting [1], the IC50 is less than 100 µM.

The values above are taken from patent publication US8546380B2, “Aminodihydrothiazine derivatives” (Shionogi & Co., Ltd., priority 2005, dated 2013).
